Experimental data as given in ChEMBL document CHEMBL5380815, “Probing Ligand Binding Sites on Large Proteins by Nuclear Magnetic Resonance Spectroscopy of Genetically Encoded Non-Canonical Amino Acids” (J Med Chem, 2023).
Active and inactive are the calls of the source. The calls are words filed in the database; no cut-off is given here.

How the values were obtained:
[1] = tested on: Replicase polyprotein 1ab (Severe acute respiratory syndrome coronavirus 2), P0DTD1 [UNDEFINED MUTATION]; assay: Activation of recombinant SARS-COV2 main protease V297TMSK mutant expressed in Escherichia coli BL21 (DE3) using DABCYL-KTSAVLQSGFRKME-EDANS-NH2 as fluorogenic substrate at 1.5 to 50 uM preincubated for 10 mins followed by substrate addition by FRET assay; settings: filed as activator, dose 1.5-50 µM
[2] = tested on: Replicase polyprotein 1ab (Severe acute respiratory syndrome coronavirus 2), P0DTD1 [UNDEFINED MUTATION]; assay: Activation of recombinant SARS-COV2 main protease V297TFAK mutant expressed in Escherichia coli BL21 (DE3) using DABCYL-KTSAVLQSGFRKME-EDANS-NH2 as fluorogenic substrate at 1.5 to 50 uM preincubated for 10 mins followed by substrate addition by FRET assay; settings: filed as activator, dose 1.5-50 µM
[3] = tested on: Replicase polyprotein 1ab (Severe acute respiratory syndrome coronavirus 2), P0DTD1 [UNDEFINED MUTATION]; assay: Activation of recombinant SARS-COV2 main protease I213TMSK mutant expressed in Escherichia coli BL21 (DE3) using DABCYL-KTSAVLQSGFRKME-EDANS-NH2 as fluorogenic substrate at 15 uM preincubated for 10 mins followed by substrate addition by FRET assay; settings: filed as activator
[4] = tested on: Replicase polyprotein 1ab (Severe acute respiratory syndrome coronavirus 2), P0DTD1 [UNDEFINED MUTATION]; assay: Activation of recombinant SARS-COV2 main protease I213TFAK mutant expressed in Escherichia coli BL21 (DE3) using DABCYL-KTSAVLQSGFRKME-EDANS-NH2 as fluorogenic substrate at 15 uM preincubated for 10 mins followed by substrate addition by FRET assay; settings: filed as activator
[5] = tested on: Replicase polyprotein 1ab (Severe acute respiratory syndrome coronavirus 2), P0DTD1 [UNDEFINED MUTATION]; assay: Inhibition of recombinant SARS-COV2 main protease S46TMSK mutant expressed in Escherichia coli BL21 (DE3) using DABCYL-KTSAVLQSGFRKME-EDANS-NH2 as fluorogenic substrate at 5 to 50 uM preincubated for 10 mins followed by substrate addition by FRET assay; settings: dose 5-50 µM
[6] = tested on: Replicase polyprotein 1ab (Severe acute respiratory syndrome coronavirus 2), P0DTD1 [UNDEFINED MUTATION]; assay: Inhibition of recombinant SARS-COV2 main protease L50TMSK mutant expressed in Escherichia coli BL21 (DE3) using DABCYL-KTSAVLQSGFRKME-EDANS-NH2 as fluorogenic substrate at 5 to 50 uM preincubated for 10 mins followed by substrate addition by FRET assay; settings: dose 5-50 µM
[7] = tested on: Replicase polyprotein 1ab (Severe acute respiratory syndrome coronavirus 2), P0DTD1 [UNDEFINED MUTATION]; assay: Inhibition of recombinant SARS-COV2 main protease N72TMSK mutant expressed in Escherichia coli BL21 (DE3) using DABCYL-KTSAVLQSGFRKME-EDANS-NH2 as fluorogenic substrate at 5 to 50 uM preincubated for 10 mins followed by substrate addition by FRET assay; settings: dose 5-50 µM
[8] = tested on: Replicase polyprotein 1ab (Severe acute respiratory syndrome coronavirus 2), P0DTD1 [UNDEFINED MUTATION]; assay: Inhibition of recombinant SARS-COV2 main protease N142TMSK mutant expressed in Escherichia coli BL21 (DE3) using DABCYL-KTSAVLQSGFRKME-EDANS-NH2 as fluorogenic substrate at 5 to 50 uM preincubated for 10 mins followed by substrate addition by FRET assay; settings: dose 5-50 µM
[9] = tested on: Replicase polyprotein 1ab (Severe acute respiratory syndrome coronavirus 2), P0DTD1 [UNDEFINED MUTATION]; assay: Inhibition of recombinant SARS-COV2 main protease V186TMSK mutant expressed in Escherichia coli BL21 (DE3) using DABCYL-KTSAVLQSGFRKME-EDANS-NH2 as fluorogenic substrate at 5 to 50 uM preincubated for 10 mins followed by substrate addition by FRET assay; settings: dose 5-50 µM
[10] = tested on: Replicase polyprotein 1ab (Severe acute respiratory syndrome coronavirus 2), P0DTD1 [UNDEFINED MUTATION]; assay: Inhibition of recombinant SARS-COV2 main protease A191TMSK mutant expressed in Escherichia coli BL21 (DE3) using DABCYL-KTSAVLQSGFRKME-EDANS-NH2 as fluorogenic substrate at 5 to 50 uM preincubated for 10 mins followed by substrate addition by FRET assay; settings: dose 5-50 µM
[11] = tested on: Replicase polyprotein 1ab (Severe acute respiratory syndrome coronavirus 2), P0DTD1 [UNDEFINED MUTATION]; assay: Inhibition of recombinant SARS-COV2 main protease L232TMSK mutant expressed in Escherichia coli BL21 (DE3) using DABCYL-KTSAVLQSGFRKME-EDANS-NH2 as fluorogenic substrate at 5 to 50 uM preincubated for 10 mins followed by substrate addition by FRET assay; settings: dose 5-50 µM
[12] = tested on: Replicase polyprotein 1ab (Severe acute respiratory syndrome coronavirus 2), P0DTD1 [UNDEFINED MUTATION]; assay: Inhibition of recombinant SARS-COV2 main protease A255TMSK mutant expressed in Escherichia coli BL21 (DE3) using DABCYL-KTSAVLQSGFRKME-EDANS-NH2 as fluorogenic substrate at 5 to 50 uM preincubated for 10 mins followed by substrate addition by FRET assay; settings: dose 5-50 µM
[13] = tested on: Replicase polyprotein 1ab (Severe acute respiratory syndrome coronavirus 2), P0DTD1 [S46A]; assay: Inhibition of recombinant SARS-COV2 main protease S46A mutant expressed in Escherichia coli BL21 (DE3) using DABCYL-KTSAVLQSGFRKME-EDANS-NH2 as fluorogenic substrate at 16 to 100 nM preincubated for 10 mins followed by substrate addition by FRET assay; settings: dose 16-100 nM
[14] = tested on: Replicase polyprotein 1ab (Severe acute respiratory syndrome coronavirus 2), P0DTD1 [L50A]; assay: Inhibition of recombinant SARS-COV2 main protease L50A mutant expressed in Escherichia coli BL21 (DE3) using DABCYL-KTSAVLQSGFRKME-EDANS-NH2 as fluorogenic substrate at 16 to 100 nM preincubated for 10 mins followed by substrate addition by FRET assay; settings: dose 16-100 nM
[15] = tested on: Replicase polyprotein 1ab (Severe acute respiratory syndrome coronavirus 2), P0DTD1 [N72A]; assay: Inhibition of recombinant SARS-COV2 main protease N72A mutant expressed in Escherichia coli BL21 (DE3) using DABCYL-KTSAVLQSGFRKME-EDANS-NH2 as fluorogenic substrate at 16 to 100 nM preincubated for 10 mins followed by substrate addition by FRET assay; settings: dose 16-100 nM
[16] = tested on: Replicase polyprotein 1ab (Severe acute respiratory syndrome coronavirus 2), P0DTD1 [N142A]; assay: Inhibition of recombinant SARS-COV2 main protease N142A mutant expressed in Escherichia coli BL21 (DE3) using DABCYL-KTSAVLQSGFRKME-EDANS-NH2 as fluorogenic substrate at 16 to 100 nM preincubated for 10 mins followed by substrate addition by FRET assay; settings: dose 16-100 nM
[17] = tested on: Replicase polyprotein 1ab (Severe acute respiratory syndrome coronavirus 2), P0DTD1 [V186A]; assay: Inhibition of recombinant SARS-COV2 main protease V186A mutant expressed in Escherichia coli BL21 (DE3) using DABCYL-KTSAVLQSGFRKME-EDANS-NH2 as fluorogenic substrate at 16 to 100 nM preincubated for 10 mins followed by substrate addition by FRET assay; settings: dose 16-100 nM
[18] = tested on: Replicase polyprotein 1ab (Severe acute respiratory syndrome coronavirus 2), P0DTD1 [UNDEFINED MUTATION]; assay: Inhibition of recombinant SARS-COV2 main protease S46TMSK mutant expressed in Escherichia coli BL21 (DE3) using DABCYL-KTSAVLQSGFRKME-EDANS-NH2 as fluorogenic substrate at 16 to 1000 nM preincubated for 10 mins followed by substrate addition by FRET assay; settings: dose 16-1000 nM
[19] = tested on: Replicase polyprotein 1ab (Severe acute respiratory syndrome coronavirus 2), P0DTD1 [UNDEFINED MUTATION]; assay: Inhibition of recombinant SARS-COV2 main protease L50TMSK mutant expressed in Escherichia coli BL21 (DE3) using DABCYL-KTSAVLQSGFRKME-EDANS-NH2 as fluorogenic substrate at 16 to 1000 nM preincubated for 10 mins followed by substrate addition by FRET assay; settings: dose 16-1000 nM
[20] = tested on: Replicase polyprotein 1ab (Severe acute respiratory syndrome coronavirus 2), P0DTD1 [UNDEFINED MUTATION]; assay: Inhibition of recombinant SARS-COV2 main protease N72TMSK mutant expressed in Escherichia coli BL21 (DE3) using DABCYL-KTSAVLQSGFRKME-EDANS-NH2 as fluorogenic substrate at 16 to 1000 nM preincubated for 10 mins followed by substrate addition by FRET assay; settings: dose 16-1000 nM
[21] = tested on: Replicase polyprotein 1ab (Severe acute respiratory syndrome coronavirus 2), P0DTD1 [UNDEFINED MUTATION]; assay: Inhibition of recombinant SARS-COV2 main protease N142TMSK mutant expressed in Escherichia coli BL21 (DE3) using DABCYL-KTSAVLQSGFRKME-EDANS-NH2 as fluorogenic substrate at 16 to 1000 nM preincubated for 10 mins followed by substrate addition by FRET assay; settings: dose 16-1000 nM
[22] = tested on: Replicase polyprotein 1ab (Severe acute respiratory syndrome coronavirus 2), P0DTD1 [UNDEFINED MUTATION]; assay: Inhibition of recombinant SARS-COV2 main protease V186TMSK mutant expressed in Escherichia coli BL21 (DE3) using DABCYL-KTSAVLQSGFRKME-EDANS-NH2 as fluorogenic substrate at 16 to 1000 nM preincubated for 10 mins followed by substrate addition by FRET assay; settings: dose 16-1000 nM
[23] = tested on: Replicase polyprotein 1ab (Severe acute respiratory syndrome coronavirus 2), P0DTD1 [UNDEFINED MUTATION]; assay: Inhibition of recombinant SARS-COV2 main protease A255TMSK mutant expressed in Escherichia coli BL21 (DE3) using DABCYL-KTSAVLQSGFRKME-EDANS-NH2 as fluorogenic substrate at 16 to 1000 nM preincubated for 10 mins followed by substrate addition by FRET assay; settings: dose 16-1000 nM
[24] = tested on: Replicase polyprotein 1ab (Severe acute respiratory syndrome coronavirus 2), P0DTD1 [N142L]; assay: Inhibition of SARS-COV2 main protease N142L mutant assessed as fold increase in IC50

`CCOc1cc2ncc(C#N)c(Nc3ccc(F)c(Cl)c3)c2cc1NC(=O)/C=C/CN(C)C` [PELITINIB] was tested, and the Activity [1] was “Dose-Dependent Effect”, the Activity [2] was “Dose-Dependent Effect” and the Activity [3] was “Active”. The Activity [4] was “Active”.
In the case of `CCCC[C@@H](C=O)NC(=O)[C@H](CC(C)C)NC(=O)OCc1ccccc1`, the inhibition [5] was “Dose-Dependent Effect”, the inhibition [6] was “Dose-Dependent Effect” and the inhibition [7] was “Dose-Dependent Effect”. The inhibition [8] was “Dose-Dependent Effect”, the inhibition [9] was “Dose-Dependent Effect” and the inhibition [10] was “Dose-Dependent Effect”. The inhibition [11] was “Dose-Dependent Effect” and the inhibition [12] was “Dose-Dependent Effect”.
With `CC(=O)[C@@H]1CSCC(=O)N[C@H](Cc2ccc(O)cc2)C(=O)N[C@@H](CC(C)C)C(=O)N[C@@H](CCC(N)=O)C(=O)N[C@@H](Cc2ccc(O)cc2)C(=O)N[C@@H](C)C(=O)N[C@@H](C(C)C)C(=O)N[C@@H](CC(C)C)C(=O)N[C@@H](CCCNC(=N)N)C(=O)N[C@@H](Cc2c[nH]cn2)C(=O)N[C@@H](CCCCN)C(=O)N[C@@H](CCCNC(=N)N)C(=O)N[C@@H](CCCNC(=N)N)C(=O)N[C@@H](CCC(=O)O)C(=O)C1` the inhibition [13] was “Dose-Dependent Effect”, the inhibition [14] was “Dose-Dependent Effect” and the inhibition [15] was “Dose-Dependent Effect”. The inhibition [16] was “Dose-Dependent Effect”, the inhibition [17] was “Dose-Dependent Effect” and the inhibition [18] was “Dose-Dependent Effect”. For the same compound, the inhibition [19] was “Dose-Dependent Effect”, the inhibition [20] was “Dose-Dependent Effect” and the inhibition [21] was “Dose-Dependent Effect”. For the same compound, the inhibition [22] was “Dose-Dependent Effect”, the inhibition [23] was “Dose-Dependent Effect” and the fold change (FC) [24] was 5.
